Results: patent US5621133A (priority 1995, dated 1997)

How the values were obtained:
dopamine D-1 receptor [1] = details: for Intrinsic Activity (adenylate cyclase assay): dopamine = 100, goldfish retina or rat striatum; for EC50: read-out: EC50 (agonist activity in adenylate cyclase assay), tissue from goldfish retina or rat striatum
Experimental: In order to determine agonist activity, cell-free tissue homogenates are incubated in an ionic buffer solution containing ATP and the compound being evaluated. The tissue was obtained from either goldfish retina or rat striatum.

[2] = system: striatal dopamine receptors; test: Rotation behavior assay of in vivo activity (6-hydroxydopamine lesioned rat rotational model); details: for ED50 s.c. (rotation behavior): injected subcutaneously
dopamine D-1 receptor [3] = target: dopamine D-1 receptor (Rattus norvegicus, UniProt P18901); test: biochemical; details: D-1 Ki, rat caudate, [125I]SCH-23982
Description: The compounds compete with the radiolabeled ligand for occupancy of the receptors and the molar potency of each compound was quantified.
The Ki values are inversely proportional to the affinity of the compound for the receptor.

dopamine D-2 receptor = dopamine D-2 receptor (Rattus norvegicus, UniProt P61169); test: biochemical; assay type: binding; details: rat caudate, [125I]-p-aminophenylethyl spiroperidol; read-out: D-2 Ki
Experimental: Homogenized rat caudate was the source of the D-2 receptors. […] The molar affinity of the compound for the receptor binding site was calculated by the same method used for the D-1 receptor assay, assuming a competitive interaction between the compound and the radiolabeled ligand.

Sequence of dopamine D-1 receptor (Rattus norvegicus, UniProt P18901) (P18901 whole entry): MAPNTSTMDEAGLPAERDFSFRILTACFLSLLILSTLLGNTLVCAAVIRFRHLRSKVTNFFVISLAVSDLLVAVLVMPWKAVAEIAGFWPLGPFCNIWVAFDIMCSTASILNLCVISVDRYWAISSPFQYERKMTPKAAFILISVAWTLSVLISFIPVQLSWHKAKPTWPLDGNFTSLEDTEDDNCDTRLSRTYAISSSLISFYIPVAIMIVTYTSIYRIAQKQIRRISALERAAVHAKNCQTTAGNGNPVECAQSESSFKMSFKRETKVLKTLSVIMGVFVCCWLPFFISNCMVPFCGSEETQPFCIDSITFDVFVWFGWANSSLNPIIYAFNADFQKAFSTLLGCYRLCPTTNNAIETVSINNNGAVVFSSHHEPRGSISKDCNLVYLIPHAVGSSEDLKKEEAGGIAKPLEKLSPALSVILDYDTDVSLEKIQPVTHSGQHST
Sequence of dopamine D-2 receptor (P61169 whole entry): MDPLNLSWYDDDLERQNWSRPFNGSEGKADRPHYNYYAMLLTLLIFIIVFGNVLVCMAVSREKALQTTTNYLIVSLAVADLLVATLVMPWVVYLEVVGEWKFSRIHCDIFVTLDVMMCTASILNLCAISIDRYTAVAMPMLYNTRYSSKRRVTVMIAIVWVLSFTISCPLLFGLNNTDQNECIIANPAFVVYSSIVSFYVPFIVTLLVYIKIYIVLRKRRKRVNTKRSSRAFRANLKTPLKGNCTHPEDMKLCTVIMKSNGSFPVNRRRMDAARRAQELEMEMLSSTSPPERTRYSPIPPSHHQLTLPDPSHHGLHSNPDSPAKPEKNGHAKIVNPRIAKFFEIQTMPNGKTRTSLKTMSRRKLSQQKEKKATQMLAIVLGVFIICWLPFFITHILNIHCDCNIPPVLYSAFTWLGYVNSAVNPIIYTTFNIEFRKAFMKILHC

Row | Intrinsic Activity (adenylate cyclase assay) (dopamine D-1 receptor [1]) | EC50 (dopamine D-1 receptor [1]) [nM] | Ki (dopamine D-1 receptor [3]) [nM] | Ki (dopamine D-2 receptor) [nM] | Structure (SMILES) | ED50 s.c. (rotation behavior) [2] [µmol/kg] | ED50 oral (rotation behavior) [2] [µmol/kg]
1 | 88 | 180 | 235 | 3900 | CC[C@H]1Cc2c(ccc(O)c2O)[C@@H](CN)O1 (relative stereo) [Example 51] | 7 | –
2 | 51 | 24 | 380 | 1500 | NC[C@H]1O[C@@H](COc2ccccc2)Cc2c1ccc(O)c2O (relative stereo) [Example 55] | 13.6 | –
3 | 80 | 390 | 640 | 540 | CCCCCCCC[C@@H]1Cc2c(ccc(O)c2O)[C@H](CN)O1 (relative stereo) [Example 64] | 58 | –
4 | 133 | 12 | 130 | 1500 | NC[C@@H]1O[C@H](CC2CCCCC2)Cc2c1ccc(O)c2O (relative stereo) [Example 88] | 0.61 | 32
5 | 130 | 7 | 21 | 1400 | CC(C)C[C@@H]1Cc2c(ccc(O)c2O)[C@H](CN)O1 (relative stereo) [Example 89] | 0.12 | 7
6 | 128 | 22 | 76 | 900 | NC[C@@H]1O[C@H](CC23CC4CC(CC(C4)C2)C3)Cc2c1ccc(O)c2O (relative stereo) [Example 90] | 0.6 | 8
7 | 110 | 54 | 37 | > 10000 | CC(C)(C)C[C@H]1Cc2c(ccc(O)c2O)[C@@H](CN)O1 (relative stereo) [Example 104] | 0.13 | 5
8 | 110 | 9 | 17 | 1000 | C=CC(C)[C@H]1Cc2c(ccc(O)c2O)[C@@H](CN)O1 (relative stereo) [Example 105] | 0.17 | –
9 | 129 | 9.7 | 450 | 3200 | CNC[C@@H]1O[C@H](CC23CC4CC(CC(C4)C2)C3)Cc2c1ccc(O)c2O (relative stereo) [Example 139] | 0.4 | 23
10 | 82 | 120 | 49 | 1400 | CNC[C@H]1O[C@@H](CC(C)(C)C)Cc2c1ccc(O)c2O (relative stereo) [Example 146] | 0.12 | 7
11 | 87 | 40 | 10 | 3200 | CC1([C@@H]2Cc3c(ccc(O)c3O)[C@H](CN)O2)CCCCC1 (relative stereo) [Example 222] | 0.3 | –
12 | 52 | 70 | 40 | 2700 | NC[C@@H]1O[C@H](C2(c3ccccc3)CCCCC2)Cc2c1ccc(O)c2O (relative stereo) [Example 223] | > 3 | –
13 | 76 | 130 | 90 | 1700 | CNC[C@@H]1O[C@H](C2(c3ccccc3)CCCCC2)Cc2c1ccc(O)c2O (relative stereo) [Example 225] | > 3 | –
14 | 89 | 40 | 20 | 1500 | CNC[C@@H]1O[C@H](C2(C)CCCCC2)Cc2c1ccc(O)c2O (relative stereo) [Example 226] | > 1 | –
